Results: publication PMC10584496, “Brazilin from Caesalpinia sappan L. as a Proprotein Convertase Subtilisin/Kexin Type 9 (PCSK9) Inhibitor: Pharmacophore-Based Virtual Screening, In Silico Molecular Docking, and In Vitro Studies” (Advances in Pharmacological and Pharmaceutical Sciences, 2023)

Molecular target: T1, Proprotein convertase subtilisin/kexin type 9 (PCSK9) (Homo sapiens, UniProt Q8NBP7)
T1 construct: His-tagged recombinant PCSK9 wild type
Experiment: CircuLex PCSK9-LDLR in vitro binding assay kit (plate-based, ELISA-type)

T1 sequence (Q8NBP7 31-152): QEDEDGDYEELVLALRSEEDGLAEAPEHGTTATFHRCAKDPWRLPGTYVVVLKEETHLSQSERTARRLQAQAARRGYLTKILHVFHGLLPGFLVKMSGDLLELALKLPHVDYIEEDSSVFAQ
T1 sequence (Q8NBP7 153-692): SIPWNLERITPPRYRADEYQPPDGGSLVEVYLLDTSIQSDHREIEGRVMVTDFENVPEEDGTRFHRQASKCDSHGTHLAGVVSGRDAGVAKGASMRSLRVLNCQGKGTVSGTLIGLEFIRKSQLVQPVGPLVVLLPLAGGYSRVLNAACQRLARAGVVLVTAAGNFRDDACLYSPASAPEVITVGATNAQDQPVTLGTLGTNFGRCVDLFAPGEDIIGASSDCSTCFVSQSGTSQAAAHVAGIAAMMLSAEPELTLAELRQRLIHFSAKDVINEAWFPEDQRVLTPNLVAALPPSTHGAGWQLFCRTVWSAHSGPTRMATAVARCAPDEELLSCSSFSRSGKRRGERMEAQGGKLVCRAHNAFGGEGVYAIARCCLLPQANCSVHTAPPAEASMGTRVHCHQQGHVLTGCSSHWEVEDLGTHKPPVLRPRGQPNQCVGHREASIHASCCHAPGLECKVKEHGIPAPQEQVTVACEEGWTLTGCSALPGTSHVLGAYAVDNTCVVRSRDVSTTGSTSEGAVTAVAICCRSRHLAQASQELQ
T1 sequence (P01130 22-860 partner): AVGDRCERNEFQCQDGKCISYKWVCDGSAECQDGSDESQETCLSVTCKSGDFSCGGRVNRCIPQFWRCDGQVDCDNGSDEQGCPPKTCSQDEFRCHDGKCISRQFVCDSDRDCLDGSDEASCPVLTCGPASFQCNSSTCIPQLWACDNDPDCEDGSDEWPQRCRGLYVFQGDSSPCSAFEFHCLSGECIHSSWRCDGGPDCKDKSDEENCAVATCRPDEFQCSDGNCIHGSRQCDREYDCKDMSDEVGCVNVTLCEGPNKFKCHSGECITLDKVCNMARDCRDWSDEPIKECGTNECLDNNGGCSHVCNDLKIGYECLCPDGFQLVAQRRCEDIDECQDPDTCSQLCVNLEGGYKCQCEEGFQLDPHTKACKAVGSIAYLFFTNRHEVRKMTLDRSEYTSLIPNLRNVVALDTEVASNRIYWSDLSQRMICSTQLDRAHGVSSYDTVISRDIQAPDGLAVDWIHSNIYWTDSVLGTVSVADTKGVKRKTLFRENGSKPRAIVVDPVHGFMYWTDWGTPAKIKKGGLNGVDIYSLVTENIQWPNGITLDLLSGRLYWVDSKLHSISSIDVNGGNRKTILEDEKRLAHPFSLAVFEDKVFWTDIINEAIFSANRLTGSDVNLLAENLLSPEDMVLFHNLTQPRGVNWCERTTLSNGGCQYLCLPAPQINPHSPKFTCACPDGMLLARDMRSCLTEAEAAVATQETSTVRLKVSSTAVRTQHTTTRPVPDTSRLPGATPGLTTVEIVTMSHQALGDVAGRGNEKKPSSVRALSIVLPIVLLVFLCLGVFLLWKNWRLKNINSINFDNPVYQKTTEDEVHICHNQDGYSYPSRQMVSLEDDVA

Structure (SMILES): Oc1ccc2c(c1)OC[C@]1(O)Cc3cc(O)c(O)cc3[C@H]21 [brazilin]
- IC50: 2190 nM
